Patent US20240398811A1, “PRC2 INHIBITORS FOR USE IN TREATING BLOOD DISORDERS” (ORIC Pharmaceuticals, Inc., priority 2021, published 2024)

How the values were obtained:
[1] = molecular target: purified human, His-tagged PRC2 complex (Homo sapiens (Human), UniProt O75530); test: Hot Spot HMT assay, inhibition of PRC2 enzymatic activity; format: biochemical; conditions: 10 nM PRC2 complex, 1 μM 3H-SAM, core histone H3, 10-point dose-response
Procedure, shortened: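 Methyl transfer from 1 μM tritiated SAM onto 0.05 mg/ml core histone H3, catalysed by 10 nM His/Flag-tagged human PRC2 holoenzyme, was run 1 hr at 30° C after a 20 min compound preincubation. Serial dilutions began at 1.0 μM; product captured on filters and counted.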

[2] = system: bone marrow derived CD34+ cells differentiated into erythroid progenitor cells; test: Percentage of F cells (fetal hemoglobin containing cells) by flow cytometry in differentiated CD34+ cells; format: cell-based, human; conditions: 7-day treatment; for fold increase in % F cells: vs vehicle
Description: (§1) Cell Culture and differentiation protocol. Human bone marrow derived CD34+ cells from healthy donors were purchased from StemCell (#70002.2). The CD34+ cells were differentiated using the STEMdiff™ Erythroid kit (StemCell #100-0074) according to manufacturer's instructions. The CD34+ cells were differentiated for 14 days, and the differentiation medium consisted of StemSpan™ SFEM II media and 10% of STEMdiff™ Erythroid Supplement E2 (10×). The CD34+ cells were thawed and plated in a 12-well plate (Corning #3512) at a density of 40,000 cells/well in 1 mL of differentiation media. 100 μL of STEMdiff™ Erythroid Supplement E2 (10×) was added to each well on Day 2, 4, 9 and 11 during differentiation. On day 7, cells were passaged and replated at a density of 167,000 cells/well in a 12-well plate. Flow cytometry was performed every 7 days to assess the stages of differentiation using anti-human CD71 and anti-human glycophorin A (CD235a) antibody (StemCell #60106AZ; #60152FI).
(§2) Treatment of differentiated CD34+ cells with compound Example 32 or hydroxyurea (HU). After 14 days of differentiation, cells were plated in a 12-well plate at a density of 150,000 cells/well in 1 mL differentiation media in quadruplets. The next day, cells were treated with vehicle, 7 concentrations of compound Example 32 in concentrations ranging from 15.625 nM to 1 μM ([…] serial dilution) and 20 μM of HU. 100 μL of STEMdiff™ Erythroid Supplement E2 (10×) was added to each well on Day 2 and 4. Cells were treated with vehicle, compound Example 32, or HU for 7 days and were then harvested for RT-qPCR and flow cytometry.
Flow Cytometry. The cell pellets harvested for flow cytometry analysis were collected in a V-shaped 96-well polypropylene plate (ThermoFisher #249944). The cells were washed with PBS and resuspended in 100 μL of PBS. The cells were first stained with eFluor 450 viability dye (diluted 1:250 in cold PBS; Invitrogen #65-0863-14) for 5 minutes on ice in the dark followed by incubation in Fc receptor blocking solution for 10 minutes (BioLegend #422302). […] Cells were washed twice and resuspended in FACS buffer and then analyzed by flow cytometry. Data was acquired using SONY SA3800 cytometer (software version 2.0.4.13263) and analyzed using FlowJo.
Bone marrow derived CD34+ cells from two healthy human donors (donor A and donor B) were differentiated into erythroid progenitor cells (erythroblasts) expressing Glycophorin A and CD71. Fourteen-day differentiated cells were then treated with vehicle (veh), different concentrations of compound Example 32, or 20 μM HU for 7 days and cells were analyzed for increase in fetal hemoglobin levels at both mRNA and protein levels. […]

[3] = system: HBG1 mRNA; test: HBG1 mRNA levels by RT-qPCR in differentiated CD34+ cells; format: cell-based, human; conditions: 7-day treatment
Description: as §1, §2
(§3) RNA extraction and RT-qPCR analysis. The cell pellets harvested for mRNA analysis were first washed once with PBS and then resuspended in 600 μL of RLT lysis buffer (from the Qiagen kit) supplemented with 1% of beta-mercaptoethanol (Sigma-Aldrich #M6250). […] The extracted RNA was then quantified using a NanoDrop™ 8000 Spectrophotometer (ThermoFisher #ND8000-GL, software version 2.3.2). […]

[4] = system: HBG2 mRNA; test: HBG2 mRNA levels by RT-qPCR in differentiated CD34+ cells; format: cell-based, human; conditions: 7-day treatment
Description: as §1, §2, §3

[5] = Donor A, normalized to RPL27, relative to vehicle
[6] = Donor B, normalized to RPL27, relative to vehicle

Sequence of purified human, His-tagged PRC2 complex (O75530 whole entry): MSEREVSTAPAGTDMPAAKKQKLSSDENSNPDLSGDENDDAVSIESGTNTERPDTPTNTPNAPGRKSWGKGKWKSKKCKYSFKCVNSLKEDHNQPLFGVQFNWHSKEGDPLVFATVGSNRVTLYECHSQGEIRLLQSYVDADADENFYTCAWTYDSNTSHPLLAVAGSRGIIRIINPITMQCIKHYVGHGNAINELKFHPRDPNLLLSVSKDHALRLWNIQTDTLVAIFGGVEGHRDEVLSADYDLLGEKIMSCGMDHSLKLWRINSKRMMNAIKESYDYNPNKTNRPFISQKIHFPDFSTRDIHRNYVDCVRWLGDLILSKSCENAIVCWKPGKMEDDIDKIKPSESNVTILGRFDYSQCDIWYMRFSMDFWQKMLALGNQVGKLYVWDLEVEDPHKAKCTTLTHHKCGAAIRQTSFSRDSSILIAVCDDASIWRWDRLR
Sequence of purified human, His-tagged PRC2 complex (Q15910 whole entry partner): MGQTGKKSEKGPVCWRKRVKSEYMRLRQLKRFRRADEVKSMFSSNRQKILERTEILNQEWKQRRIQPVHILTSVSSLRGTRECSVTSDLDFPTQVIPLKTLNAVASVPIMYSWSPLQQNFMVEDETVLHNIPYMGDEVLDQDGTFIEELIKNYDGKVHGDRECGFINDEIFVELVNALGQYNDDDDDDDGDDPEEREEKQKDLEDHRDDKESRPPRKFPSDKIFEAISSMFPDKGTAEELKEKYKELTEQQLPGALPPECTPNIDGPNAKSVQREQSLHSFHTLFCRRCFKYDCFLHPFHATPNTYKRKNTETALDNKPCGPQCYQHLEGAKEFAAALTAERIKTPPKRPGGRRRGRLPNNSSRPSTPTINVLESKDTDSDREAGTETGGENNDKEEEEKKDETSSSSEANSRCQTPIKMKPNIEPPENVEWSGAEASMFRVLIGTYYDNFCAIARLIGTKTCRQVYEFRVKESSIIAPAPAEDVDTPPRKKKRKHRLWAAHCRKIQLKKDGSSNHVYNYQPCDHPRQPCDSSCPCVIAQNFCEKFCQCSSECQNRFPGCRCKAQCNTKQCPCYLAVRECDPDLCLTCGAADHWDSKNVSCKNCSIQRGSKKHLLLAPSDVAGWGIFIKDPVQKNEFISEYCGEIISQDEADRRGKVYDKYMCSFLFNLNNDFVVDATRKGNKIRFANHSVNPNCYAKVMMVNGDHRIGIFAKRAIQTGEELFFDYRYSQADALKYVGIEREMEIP
Sequence of purified human, His-tagged PRC2 complex (Q15022 whole entry partner): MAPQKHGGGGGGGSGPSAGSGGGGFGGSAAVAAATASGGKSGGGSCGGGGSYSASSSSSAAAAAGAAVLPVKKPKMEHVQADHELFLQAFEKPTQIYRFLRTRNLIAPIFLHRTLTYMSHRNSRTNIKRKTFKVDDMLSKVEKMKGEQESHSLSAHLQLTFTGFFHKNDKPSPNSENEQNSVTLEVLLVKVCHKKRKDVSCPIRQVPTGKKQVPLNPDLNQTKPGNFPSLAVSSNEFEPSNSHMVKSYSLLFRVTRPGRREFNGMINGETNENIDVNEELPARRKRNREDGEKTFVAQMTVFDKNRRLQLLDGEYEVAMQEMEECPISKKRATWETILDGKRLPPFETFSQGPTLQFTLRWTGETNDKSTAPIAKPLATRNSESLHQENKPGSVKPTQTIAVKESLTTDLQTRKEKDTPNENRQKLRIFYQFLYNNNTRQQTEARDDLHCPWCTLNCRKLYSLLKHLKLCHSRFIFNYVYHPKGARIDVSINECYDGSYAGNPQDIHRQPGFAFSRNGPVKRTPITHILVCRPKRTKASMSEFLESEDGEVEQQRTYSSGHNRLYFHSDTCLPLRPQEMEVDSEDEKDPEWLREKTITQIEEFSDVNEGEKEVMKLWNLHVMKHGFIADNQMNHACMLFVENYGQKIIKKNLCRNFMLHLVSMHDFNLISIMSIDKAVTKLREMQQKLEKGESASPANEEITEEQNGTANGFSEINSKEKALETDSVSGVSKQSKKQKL
Sequence of purified human, His-tagged PRC2 complex (Q6ZN18 whole entry partner): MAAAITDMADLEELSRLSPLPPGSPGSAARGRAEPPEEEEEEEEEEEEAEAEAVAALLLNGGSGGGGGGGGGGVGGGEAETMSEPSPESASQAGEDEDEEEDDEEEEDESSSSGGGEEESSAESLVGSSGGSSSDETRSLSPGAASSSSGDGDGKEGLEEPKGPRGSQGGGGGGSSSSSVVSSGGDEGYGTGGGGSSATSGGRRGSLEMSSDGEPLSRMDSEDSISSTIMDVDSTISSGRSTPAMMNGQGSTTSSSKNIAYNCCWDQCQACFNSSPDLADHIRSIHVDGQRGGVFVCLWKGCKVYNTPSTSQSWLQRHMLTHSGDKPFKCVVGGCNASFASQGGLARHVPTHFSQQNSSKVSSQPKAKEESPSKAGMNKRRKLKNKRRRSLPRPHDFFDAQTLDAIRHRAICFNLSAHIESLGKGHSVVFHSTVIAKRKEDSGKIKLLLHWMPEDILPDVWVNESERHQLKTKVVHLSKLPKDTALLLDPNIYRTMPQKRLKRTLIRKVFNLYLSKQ
Sequence of purified human, His-tagged PRC2 complex (Q09028 whole entry partner): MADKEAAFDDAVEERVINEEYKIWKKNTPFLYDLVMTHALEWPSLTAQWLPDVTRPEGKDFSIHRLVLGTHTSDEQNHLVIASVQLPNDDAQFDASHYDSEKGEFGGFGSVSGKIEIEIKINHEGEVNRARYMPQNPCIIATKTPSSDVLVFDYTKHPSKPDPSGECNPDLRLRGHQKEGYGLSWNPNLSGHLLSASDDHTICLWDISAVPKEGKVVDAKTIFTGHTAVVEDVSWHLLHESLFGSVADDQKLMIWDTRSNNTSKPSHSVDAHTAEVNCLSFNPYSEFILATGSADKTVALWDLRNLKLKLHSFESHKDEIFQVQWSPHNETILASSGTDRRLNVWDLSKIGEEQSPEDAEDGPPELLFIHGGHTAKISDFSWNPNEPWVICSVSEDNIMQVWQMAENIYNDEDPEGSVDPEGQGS

Row | Compound | IC50 [1] [nM] | % F cells (live cells with fetal hemoglobin) ([2]; donors A and B, 14-day differentiated cells) | fold increase in % F cells ([2]; donors A and B, 14-day differentiated cells, 15.625 nM to 1 μM) | fold increase in HBG1 mRNA levels [3, 5] [fold] | fold increase in HBG1 mRNA levels [3, 6] [fold] | fold increase in HBG2 mRNA levels [4, 5] [fold] | fold increase in HBG2 mRNA levels [4, 6] [fold] | fold increase in % F cells ([2]; Donor A, 20 μM) [fold] | fold increase in % F cells ([2]; Donor B, 20 μM) [fold] | fold increase in HBG1 mRNA levels ([3]; Donor B, 20 μM, relative to vehicle) [fold] | fold increase in HBG2 mRNA levels ([4]; Donor A, 20 μM, relative to vehicle) [fold]
1 | Cc1cc(CN(C)C)ccc1-c1cnc(NCc2c(F)ccc3c2CCO3)n2cc(C#N)nc12 [Example 32] | 100 to 500 | 30-40% | 2.6-2.7 fold | 4 | 4 | 9 | 4 |  |  |  | 
2 | NC(=O)NO [HU, hydroxyurea, reference compound] |  |  |  |  |  |  |  | 1.9 | 1.3 | 1.7 | 2.7
